In PubChem BioAssay AID2060502 (Molecular Pharmacology Branch, DTP, NCI, 2025):

Tested on: 885724-159-R-J1-PDC complex spheroid viability
Test: Anticancer human tumor 885724-159-R-J1-PDC patient-derived pancreatic adenocarcinoma cell line growth inhibition [GQUAD]
Details: for IC50: curve of first compound; for viability, T/C: stronger effect = lower value
Summary of the method: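 Tumor cells were grown as complex spheroids with HUVEC endothelial cells and mesenchymal stem cells as stroma. G-quadruplex stabilizers were combined with targeted agents over half-log dilutions from near the clinical Cmax, or from 10 microM.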

[1] = second compound 0.0316 µM, first compound 0.0316 µM
[2] = second compound 0.0316 µM, first compound 0.1 µM
[3] = second compound 0.0316 µM, first compound 0.316 µM
[4] = second compound 0.0316 µM, first compound 1 µM
[5] = second compound 0.0316 µM, first compound 3.16 µM
[6] = second compound 0.0316 µM, first compound 10 µM
[7] = second compound 0.1 µM, first compound 0.0316 µM
[8] = second compound 0.1 µM, first compound 0.1 µM
[9] = second compound 0.1 µM, first compound 0.316 µM
[10] = second compound 0.1 µM, first compound 1 µM
[11] = second compound 0.1 µM, first compound 3.16 µM
[12] = second compound 0.1 µM, first compound 10 µM
[13] = second compound 0.316 µM, first compound 0.0316 µM
[14] = second compound 0.316 µM, first compound 0.1 µM
[15] = second compound 0.316 µM, first compound 0.316 µM
[16] = second compound 0.316 µM, first compound 1 µM
[17] = second compound 0.316 µM, first compound 3.16 µM
[18] = second compound 0.316 µM, first compound 10 µM
[19] = second compound 1 µM, first compound 0.0316 µM
[20] = second compound 1 µM, first compound 0.1 µM
[21] = second compound 1 µM, first compound 0.316 µM
[22] = second compound 1 µM, first compound 1 µM
[23] = second compound 1 µM, first compound 3.16 µM
[24] = second compound 1 µM, first compound 10 µM
[25] = second compound 3.16 µM, first compound 0.0316 µM
[26] = second compound 3.16 µM, first compound 0.1 µM
[27] = second compound 3.16 µM, first compound 0.316 µM
[28] = second compound 3.16 µM, first compound 1 µM
[29] = second compound 3.16 µM, first compound 3.16 µM
[30] = second compound 3.16 µM, first compound 10 µM
[31] = second compound 10 µM, first compound 0.0316 µM
[32] = second compound 10 µM, first compound 0.1 µM
[33] = second compound 10 µM, first compound 0.316 µM
[34] = second compound 10 µM, first compound 1 µM
[35] = second compound 10 µM, first compound 3.16 µM
[36] = second compound 10 µM, first compound 10 µM
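Note: spheroids exposed to agents for seven days before readout.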
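Throughout, for viability, T/C: percent of vehicle control viability where 100% = DMSO wells.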

With `O=C(c1cc(Cc2n[nH]c(=O)c3ccccc23)ccc1F)N1CCN(C(=O)C2CC2)CC1` + Cc1[nH]c2ccc(F)cc2c1-c1nc2c3cccnc3c3ncccc3c2[nH]1 the IC50 (second compound 0.0316 µM) was over 10 µM, the IC50 (second compound 0.1 µM) was over 10 µM and the IC50 (second compound 0.316 µM) was over 10 µM. The IC50 (second compound 1 µM) was over 10 µM, the IC50 (second compound 3.16 µM) was under 0.0316 µM and the IC50 (second compound 10 µM) was over 10 µM. For the same compound, the viability, T/C [1] was 99.1%, the viability, T/C [2] was 94.3% and the viability, T/C [3] was 103%. The viability, T/C [4] was 84.5%, the viability, T/C [5] was 89.2% and the viability, T/C [6] was 87.9%. The viability, T/C [7] was 102%, the viability, T/C [8] was 111% and the viability, T/C [9] was 92.2%. It also gave a viability, T/C [10] of 92.6%, a viability, T/C [11] of 103% and a viability, T/C [12] of 78.1%. It also gave a viability, T/C [13] of 85.5%, a viability, T/C [14] of 88.7% and a viability, T/C [15] of 90.3%. It also gave a viability, T/C [16] of 79.1%, a viability, T/C [17] of 96.2% and a viability, T/C [18] of 72.9%. The viability, T/C [19] was 71.1%, the viability, T/C [20] was 71.1% and the viability, T/C [21] was 77.2%. For the same compound, the viability, T/C [22] was 65.3%, the viability, T/C [23] was 76.8% and the viability, T/C [24] was 65.6%. The viability, T/C [25] was 41.3%, the viability, T/C [26] was 39.9% and the viability, T/C [27] was 56.6%. For the same compound, the viability, T/C [28] was 34.7%, the viability, T/C [29] was 49.8% and the viability, T/C [30] was 45.5%. The viability, T/C [31] was 64.7%, the viability, T/C [32] was 70.5% and the viability, T/C [33] was 76.8%. For the same compound, the viability, T/C [34] was 72.3%, the viability, T/C [35] was 70.6% and the viability, T/C [36] was 63.3%.
With `CC1COCCN1c1cc(-c2ccnn2C)c2ccnc(-c3ccn[nH]3)c2n1` (stereo unspecified) + Cc1cnc(CNC(=O)c2c(=O)c3ccc(N4CCCN(C)CC4)nc3n3c2sc2ccccc23)cn1 the IC50 (second compound 0.0316 µM) was 2.66 µM, the IC50 (second compound 0.1 µM) was 5.19 µM and the IC50 (second compound 0.316 µM) was 4.11 µM. It also gave an IC50 (second compound 1 µM) of 1.59 µM, an IC50 (second compound 3.16 µM) of 0.609 µM and an IC50 (second compound 10 µM) of 0.728 µM. For the same compound, the viability, T/C [1] was 86.4%, the viability, T/C [2] was 81.4% and the viability, T/C [3] was 76.3%. It also gave a viability, T/C [4] of 54.9%, a viability, T/C [5] of 52.8% and a viability, T/C [6] of 38.5%. It also gave a viability, T/C [7] of 99.4%, a viability, T/C [8] of 81.1% and a viability, T/C [9] of 82.4%. For the same compound, the viability, T/C [10] was 73.5%, the viability, T/C [11] was 54% and the viability, T/C [12] was 41.3%. It also gave a viability, T/C [13] of 94.2%, a viability, T/C [14] of 90.3% and a viability, T/C [15] of 72.9%. For the same compound, the viability, T/C [16] was 62.2%, the viability, T/C [17] was 55.2% and the viability, T/C [18] was 41.3%. The viability, T/C [19] was 82.4%, the viability, T/C [20] was 74.1% and the viability, T/C [21] was 69.3%. For the same compound, the viability, T/C [22] was 57.2%, the viability, T/C [23] was 39.8% and the viability, T/C [24] was 33.9%. It also gave a viability, T/C [25] of 64.8%, a viability, T/C [26] of 65.7% and a viability, T/C [27] of 58.4%. For the same compound, the viability, T/C [28] was 42.7%, the viability, T/C [29] was 37.3% and the viability, T/C [30] was 30.9%. For the same compound, the viability, T/C [31] was 65.1%, the viability, T/C [32] was 61.6% and the viability, T/C [33] was 57.3%. It also gave a viability, T/C [34] of 48.2%, a viability, T/C [35] of 30.6% and a viability, T/C [36] of 25.2%.
For `COc1ccc([C@@H](O)c2cc(-c3ncnc4cc(N5CCOCC5)ccc34)c(F)cc2Cl)nn1` + Cc1[nH]c2ccc(F)cc2c1-c1nc2c3cccnc3c3ncccc3c2[nH]1, the IC50 (second compound 0.0316 µM) was 6.88 µM, the IC50 (second compound 0.1 µM) was 5.43 µM and the IC50 (second compound 0.316 µM) was 5.28 µM. It also gave an IC50 (second compound 1 µM) of 3.28 µM, an IC50 (second compound 3.16 µM) of under 0.0316 µM and an IC50 (second compound 10 µM) of 3.51 µM. For the same compound, the viability, T/C [1] was 101%, the viability, T/C [2] was 110% and the viability, T/C [3] was 108%. For the same compound, the viability, T/C [4] was 94%, the viability, T/C [5] was 68.5% and the viability, T/C [6] was 41.2%. It also gave a viability, T/C [7] of 99%, a viability, T/C [8] of 97% and a viability, T/C [9] of 90.5%. For the same compound, the viability, T/C [10] was 82.3%, the viability, T/C [11] was 57.7% and the viability, T/C [12] was 40.5%. It also gave a viability, T/C [13] of 92%, a viability, T/C [14] of 97.8% and a viability, T/C [15] of 83.6%. It also gave a viability, T/C [16] of 65.7%, a viability, T/C [17] of 66.5% and a viability, T/C [18] of 36.2%. It also gave a viability, T/C [19] of 76.1%, a viability, T/C [20] of 71.1% and a viability, T/C [21] of 82.8%. It also gave a viability, T/C [22] of 68.5%, a viability, T/C [23] of 51% and a viability, T/C [24] of 34.3%. It also gave a viability, T/C [25] of 47.5%, a viability, T/C [26] of 46.3% and a viability, T/C [27] of 51.2%. The viability, T/C [28] was 39.5%, the viability, T/C [29] was 33.7% and the viability, T/C [30] was 28.3%. For the same compound, the viability, T/C [31] was 72.4%, the viability, T/C [32] was 75.6% and the viability, T/C [33] was 62.6%. For the same compound, the viability, T/C [34] was 63.4%, the viability, T/C [35] was 52.9% and the viability, T/C [36] was 32.8%.
